Results published in ChEMBL document CHEMBL2151039, “Discovery and development of α7 nicotinic acetylcholine receptor modulators” (J Med Chem, 2011).

Columns and labels:
[1] = target: T1, Neuronal acetylcholine receptor subunit alpha-7 (Homo sapiens, UniProt P36544); experiment: Agonist activity at human alpha7 nAChR expressed in Xenopus oocytes assessed as potentiation of nicotine-induced current relative to acetylcholine; type: functional, cell-based; settings: Oocyte
[2] = target: T2, 5-hydroxytryptamine receptor 3A (Homo sapiens, UniProt P46098); experiment: Binding affinity to 5HT3 receptor
T2 sequence (P46098 whole entry): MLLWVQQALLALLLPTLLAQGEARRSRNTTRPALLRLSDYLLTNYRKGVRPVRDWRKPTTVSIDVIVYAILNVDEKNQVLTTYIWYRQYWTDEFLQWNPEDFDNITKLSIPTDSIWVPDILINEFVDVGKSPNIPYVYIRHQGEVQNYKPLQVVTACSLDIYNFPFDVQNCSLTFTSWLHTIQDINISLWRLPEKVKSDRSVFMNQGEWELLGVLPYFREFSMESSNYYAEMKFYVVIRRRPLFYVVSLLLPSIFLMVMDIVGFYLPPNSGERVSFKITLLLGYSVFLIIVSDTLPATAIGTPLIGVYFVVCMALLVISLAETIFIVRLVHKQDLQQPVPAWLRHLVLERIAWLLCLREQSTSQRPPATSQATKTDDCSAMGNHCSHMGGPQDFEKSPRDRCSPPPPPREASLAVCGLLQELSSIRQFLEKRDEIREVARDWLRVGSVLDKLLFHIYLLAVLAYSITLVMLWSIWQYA

[3] = target: T1, Neuronal acetylcholine receptor subunit alpha-7; experiment: Agonist activity at alpha7 nAChR; type: functional
[4] = target: T1, Neuronal acetylcholine receptor subunit alpha-7; experiment: Displacement of [125I]alpha-bungarotoxin from human recombinant alpha7 nAchR
[5] = target: T1, Neuronal acetylcholine receptor subunit alpha-7; experiment: Agonist activity at human alpha7 nAChR expressed in Xenopus oocytes assessed as induction of inward current; type: functional, cell-based, Oocyte
[6] = Selectivity ratio of alpha3 nAchR to alpha7 nAchR
[7] = target: T3, Neuronal acetylcholine receptor; alpha4/beta2 (Homo sapiens, UniProt P17787+P43681); experiment: Binding affinity to alpha4beta2 nAChR; type: protein-complex assay
[8] = target: T1, Neuronal acetylcholine receptor subunit alpha-7; experiment: Binding affinity to alpha7 nAChR
[9] = target: T2, 5-hydroxytryptamine receptor 3A; experiment: Inhibition of 5HT3 receptor
[10] = target: T1, Neuronal acetylcholine receptor subunit alpha-7; experiment: Agonist activity at human alpha7 nAChR; type: functional
[11] = target: T1, Neuronal acetylcholine receptor subunit alpha-7; experiment: Binding affinity to human alpha7 nAchR
[12] = target: T1, Neuronal acetylcholine receptor subunit alpha-7; experiment: Agonist activity at human alpha7 nAChR relative to control; type: functional
[13] = target: Voltage-gated inwardly rectifying potassium channel KCNH2 (Homo sapiens, UniProt Q12809); experiment: Inhibition of human ERG
[14] = target: T1, Neuronal acetylcholine receptor subunit alpha-7; experiment: Agonist activity at alpha7 nAChR at 32 uM; type: functional
[15] = target: T2, 5-hydroxytryptamine receptor 3A; experiment: Binding affinity to human 5HT3A receptor
[16] = target: T3, Neuronal acetylcholine receptor; alpha4/beta2; experiment: Binding affinity to human alpha4beta2 nAChR; type: protein-complex assay
[17] = target: Neuronal acetylcholine receptor subunit alpha-7 (Rattus norvegicus, UniProt Q05941); experiment: Agonist activity at rat alpha7 nAchR expressed in Xenopus oocyte; type: functional
[18] = target: T4, 5-hydroxytryptamine receptor 3A (Homo sapiens) (UniProt P46098); experiment: Binding affinity to human 5HT3 receptor at 10 uM by radioligand binding assay
T4 sequence (whole entry): T2 sequence (P46098 whole entry)

T3 sequence (P17787 whole entry): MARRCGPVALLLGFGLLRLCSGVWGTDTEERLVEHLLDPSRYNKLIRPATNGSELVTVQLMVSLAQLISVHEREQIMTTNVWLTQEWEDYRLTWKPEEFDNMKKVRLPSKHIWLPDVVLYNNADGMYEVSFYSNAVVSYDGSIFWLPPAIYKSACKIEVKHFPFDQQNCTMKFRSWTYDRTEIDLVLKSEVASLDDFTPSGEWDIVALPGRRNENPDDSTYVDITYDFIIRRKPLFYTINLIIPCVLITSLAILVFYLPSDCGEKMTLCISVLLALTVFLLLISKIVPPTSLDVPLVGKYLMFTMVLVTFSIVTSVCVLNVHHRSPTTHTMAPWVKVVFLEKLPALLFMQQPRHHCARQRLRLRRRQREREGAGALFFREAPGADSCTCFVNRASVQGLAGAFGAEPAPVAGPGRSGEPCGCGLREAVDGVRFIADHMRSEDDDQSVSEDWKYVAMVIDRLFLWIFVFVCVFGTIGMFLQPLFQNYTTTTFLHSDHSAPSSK
T3 sequence (P43681 whole entry): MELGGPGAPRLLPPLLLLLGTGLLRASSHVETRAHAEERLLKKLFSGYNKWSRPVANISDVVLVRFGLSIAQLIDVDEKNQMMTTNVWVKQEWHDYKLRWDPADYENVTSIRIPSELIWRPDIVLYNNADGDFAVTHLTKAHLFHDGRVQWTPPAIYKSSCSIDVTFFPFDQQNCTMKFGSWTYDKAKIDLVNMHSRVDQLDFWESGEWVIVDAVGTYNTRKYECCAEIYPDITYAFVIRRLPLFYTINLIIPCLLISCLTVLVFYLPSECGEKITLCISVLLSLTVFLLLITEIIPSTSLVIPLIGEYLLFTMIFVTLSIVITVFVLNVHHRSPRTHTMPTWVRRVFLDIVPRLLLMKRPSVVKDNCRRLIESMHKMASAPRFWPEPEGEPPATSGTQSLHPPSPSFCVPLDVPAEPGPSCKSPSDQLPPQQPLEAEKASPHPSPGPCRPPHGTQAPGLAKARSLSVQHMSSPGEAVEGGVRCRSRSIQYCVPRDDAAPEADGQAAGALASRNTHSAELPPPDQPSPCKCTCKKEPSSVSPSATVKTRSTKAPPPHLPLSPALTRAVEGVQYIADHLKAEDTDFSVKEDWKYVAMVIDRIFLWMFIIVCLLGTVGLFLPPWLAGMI
T1 sequence (P36544 whole entry): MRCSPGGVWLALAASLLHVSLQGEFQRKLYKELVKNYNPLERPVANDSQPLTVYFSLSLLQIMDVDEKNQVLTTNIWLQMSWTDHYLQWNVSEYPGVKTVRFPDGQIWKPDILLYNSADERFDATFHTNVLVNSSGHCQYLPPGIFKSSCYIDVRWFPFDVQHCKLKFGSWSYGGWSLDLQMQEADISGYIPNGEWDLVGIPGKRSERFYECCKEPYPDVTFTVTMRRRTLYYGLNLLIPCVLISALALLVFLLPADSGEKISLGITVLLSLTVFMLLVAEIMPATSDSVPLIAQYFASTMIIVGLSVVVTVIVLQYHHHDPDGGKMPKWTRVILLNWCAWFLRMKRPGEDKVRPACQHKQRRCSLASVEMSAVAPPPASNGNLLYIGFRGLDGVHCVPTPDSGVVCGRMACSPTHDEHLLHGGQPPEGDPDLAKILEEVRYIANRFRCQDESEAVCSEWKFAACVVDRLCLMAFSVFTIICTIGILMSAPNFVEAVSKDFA
Voltage-gated inwardly rectifying potassium channel KCNH2, sequence (Q12809 whole entry): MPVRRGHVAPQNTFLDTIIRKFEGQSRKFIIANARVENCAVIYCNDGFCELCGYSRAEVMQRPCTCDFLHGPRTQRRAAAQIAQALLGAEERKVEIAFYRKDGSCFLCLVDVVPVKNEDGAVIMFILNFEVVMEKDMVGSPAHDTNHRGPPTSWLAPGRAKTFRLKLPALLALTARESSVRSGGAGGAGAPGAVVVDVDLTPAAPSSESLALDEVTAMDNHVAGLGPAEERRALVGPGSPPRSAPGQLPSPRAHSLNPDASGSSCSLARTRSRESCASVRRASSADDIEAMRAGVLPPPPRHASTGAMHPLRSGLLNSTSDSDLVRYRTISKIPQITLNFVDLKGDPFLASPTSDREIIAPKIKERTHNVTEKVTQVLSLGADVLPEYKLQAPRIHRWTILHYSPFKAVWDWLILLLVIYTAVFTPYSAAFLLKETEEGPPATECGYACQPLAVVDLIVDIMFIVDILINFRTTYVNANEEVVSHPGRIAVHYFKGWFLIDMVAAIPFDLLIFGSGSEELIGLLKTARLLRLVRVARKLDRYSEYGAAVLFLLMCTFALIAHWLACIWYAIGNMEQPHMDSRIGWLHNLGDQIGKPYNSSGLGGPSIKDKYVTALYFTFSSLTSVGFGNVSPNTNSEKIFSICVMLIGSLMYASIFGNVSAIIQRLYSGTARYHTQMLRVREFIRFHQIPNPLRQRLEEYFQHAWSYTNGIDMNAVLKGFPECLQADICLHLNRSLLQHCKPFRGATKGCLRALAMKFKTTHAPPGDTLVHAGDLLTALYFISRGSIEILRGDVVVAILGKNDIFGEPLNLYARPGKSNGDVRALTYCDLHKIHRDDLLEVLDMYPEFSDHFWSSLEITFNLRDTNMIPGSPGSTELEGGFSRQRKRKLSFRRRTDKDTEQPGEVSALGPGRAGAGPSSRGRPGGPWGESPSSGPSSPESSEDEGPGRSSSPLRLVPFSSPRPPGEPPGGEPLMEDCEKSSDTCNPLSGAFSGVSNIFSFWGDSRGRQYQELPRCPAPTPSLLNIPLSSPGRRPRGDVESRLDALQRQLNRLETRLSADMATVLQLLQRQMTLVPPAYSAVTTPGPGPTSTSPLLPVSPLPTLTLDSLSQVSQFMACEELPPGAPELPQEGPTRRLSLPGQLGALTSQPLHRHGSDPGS
Neuronal acetylcholine receptor subunit alpha-7 (Rattus norvegicus, UniProt Q05941), sequence (Q05941 whole entry): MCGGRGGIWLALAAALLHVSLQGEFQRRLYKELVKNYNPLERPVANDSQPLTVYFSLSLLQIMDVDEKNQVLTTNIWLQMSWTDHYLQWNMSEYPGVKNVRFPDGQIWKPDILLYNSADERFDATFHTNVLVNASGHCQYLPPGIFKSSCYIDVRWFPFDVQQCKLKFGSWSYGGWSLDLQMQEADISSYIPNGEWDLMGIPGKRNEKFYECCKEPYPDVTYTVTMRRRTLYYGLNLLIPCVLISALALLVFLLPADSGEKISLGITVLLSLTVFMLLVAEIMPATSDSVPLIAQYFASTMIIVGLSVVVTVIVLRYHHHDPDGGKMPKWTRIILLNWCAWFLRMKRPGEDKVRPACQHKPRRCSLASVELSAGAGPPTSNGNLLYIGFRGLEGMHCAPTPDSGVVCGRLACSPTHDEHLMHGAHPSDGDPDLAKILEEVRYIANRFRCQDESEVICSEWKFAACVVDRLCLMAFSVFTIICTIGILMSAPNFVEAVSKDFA

Compound	EC50 [3]	Ki [8]	Ki [2]	further results
Cc1cc(/C(=C\Nc2ccc(Cl)cc2)C(=O)Nc2ccc(Cl)cc2)on1	–	–	–	fold change (FC) [1]: 2.7
O=C(N[C@H]1CN2CCC1CC2)c1cc2cccc(Cl)c2s1 [ENCENICLINE]	–	–	–	IC50 [2]: 299 nM
O=C(CCCCN1CCCCC1)Nc1ccc(-c2cccnc2)cc1	350 nM	–	–	–
C[C@H](OC(=O)N[C@@H]1CN2CCC1CC2)c1ccccc1F	–	–	–	Kd [2]: 13000 nM; Kd ([4]; read-out: Kd): 200 nM; Kd ([4]; read-out: pKd (converted)): 200 nM; EC50 ([5]; read-out: EC50): 2000 nM; EC50 ([5]; read-out: pEC50 (converted)): 2000 nM
O=C(NCCCCN1CCCCC1)Nc1ccc(-c2ccccn2)cc1	130 nM	–	–	Selectivity ratio [6]: 5
c1ccc(-c2ccc(N3CC4CNCC4C3)cn2)cc1 (stereo not drawn)	–	8.4 nM	–	Ki [7]: 96 nM
O=C(N[C@H]1CN2CCC1CC2)c1ccc2occc2c1	43 nM	1.6 nM	663 nM	IC50 [9]: 580 nM
c1cc(-c2cnc3c(c2)C[C@@]2(CN4CCC2CC4)O3)co1	–	–	–	EC50 [10]: 470 nM; Ki [11]: 0.03 nM; Emax [12]: 40%; IC50 [13]: 1600 nM
c1ccc2oc(N3CCN4CCC3CC4)nc2c1	–	22.5 nM	13 nM	Activity [14]: 183%
O=C1O[C@]2(CN3CCC2CC3)CN1c1cc2ccccc2s1	–	75 nM	–	–
O=C1O[C@]2(CN3CCC2CC3)CN1c1cccs1	–	80 nM	–	–
CN1CC2CN(c3ccc(-c4ccccc4)nc3)CC2C1 (stereo not drawn)	–	9.6 nM	–	Ki [7]: 28000 nM
O=C(N[C@H]1CN2CCC1CC2)c1ccc2ccoc2c1	86 nM	12.5 nM	310 nM	IC50 [9]: 962 nM
O=C(Nc1ccc(Br)cc1)OC1CN2CCC1CC2 (stereo not drawn)	–	167 nM	–	Activity [14]: 90%
O=C(N[C@H]1CN2CCC1CC2)c1cc(Cl)cc2c1OCC2	–	–	1 nM	–
O=C(Oc1ccccc1)N1CCN2CCC1CC2	–	739 nM	3990 nM	Activity [14]: 99%
O=C(NCCCCN1CCCCC1)Nc1ccc(-c2cccnc2)cc1	120 nM	–	–	–
c1cnc2nc(N3CCN4CCC3CC4)oc2c1	–	30.3 nM	579 nM	Activity [14]: 220%
CN1CC2CN(c3ccc(-c4ccc5[nH]ccc5c4)nn3)CC2C1 (stereo not drawn)	320 nM	0.24 nM	–	Ki [7]: > 20000 nM
Cc1nc2nc(N3CCN4CCC3CC4)oc2cc1Cl	160 nM	3.2 nM	244 nM	–
c1cnc2c(c1)C[C@@]1(CN3CCC1CC3)O2 [AZD0328]	–	–	–	Ki [15]: 12 nM; EC50 [10]: 340 nM; Emax [12]: 58%; Ki [16]: 140 nM
O=C1NC[C@@]2(CN3CCC2CC3)O1	–	–	–	EC50 [17]: 21000 nM; inhibition [18]: 2.5%
c1ccc2sc(CO[C@@H]3CN4CCC3CC4)cc2c1	–	13 nM	–	–
O=C(N[C@H]1CN2CCC1CC2)c1ccc2cc[nH]c2c1	100 nM	–	–	–
O=C1O[C@]2(CN3CCC2CC3)CN1c1ccc(Cl)s1	–	9 nM	–	–
Clc1cnc2nc(N3CCN4CCC3CC4)oc2c1	160 nM	1 nM	1370 nM	–
O=C(N[C@H]1CN2CCC1CC2)c1ccc2ccsc2c1	48 nM	2.1 nM	174 nM	IC50 [9]: 188 nM
